Literature values in patent US9044383B1, “Compounds and methods for drug delivery via a human nail” (priority 2013, dated 2015).

Assays:
overweight and obese men = conditions: taken orally
obesity in subjects = conditions: applied topically on the skin

C=C[C@@]1(C)CC(=O)[C@]2(O)[C@@]3(C)[C@@H](O)CCC(C)(C)[C@@H]3[C@H](O)[C@H](OC(C)=O)[C@@]2(C)O1 [forskolin, 7-beta-acetoxy-8,13-epoxy-1-alpha, 6-beta, 9-alpha-trihydroxylabd-14-en-1′-one]
solubility in organic solvents (organic solvents such as ethanol, chloroform, and dimethyl surfoxide): soluble
solubility in water (with 2% ethanol) (water with 2% ethanol, first dissolved in ethanol or dimethyl surfoxide at 5 mg/mL, then diluted with water): up to 0.2 mm
effectiveness as a weight loss aid (overweight and obese men): favorable results
decreasing obesity (obesity in subjects): favorable results
